Earlier results in patent publication US12251380B2, “Depot systems comprising cariprazine or salts thereof” (Mapi Pharma Ltd., priority 2022, dated 2025).
Where two headings read alike, the source gives them in different places.

Conditions: schizophrenic patients

elimination half-life (active metabolite after oral Cariprazine)	elimination half-life (oral Cariprazine) [days]	SMILES
2-3 weeks		NC(=O)NC1CCC(CCN2CCN(c3cccc(Cl)c3Cl)CC2)CC1 (centres unmarked) [didesmethyl Cariprazine]
	2 to 5	CN(C)C(=O)N[C@H]1CC[C@H](CCN2CCN(c3cccc(Cl)c3Cl)CC2)CC1 [Cariprazine, trans-N-{4-[2-[4-(2,3-dichlorophenyl)piperazine-1-yl]ethyl]cyclohexyl}-N′,N′-dimethylurea]
